# Assay results from ChEMBL document CHEMBL5500343, “Activity refinement of aryl amino acetamides that target the P. falciparum STAR-related lipid transfer 1 protein” (Eur J Med Chem, 2024).
# Experiments:
# Plasmodium falciparum [1] = test: Antimalarial activity against asexual blood stage Plasmodium falciparum 3D7 assessed as reduction in parasite growth incubated for 72 hrs by LDH assay; format: functional, organism-based; details: 3D7, 72 h
# HepG2 = test: Cytotoxicity against human HepG2 cells assessed as reduction in cell viability incubated for 48 hrs by Cell Titer-Glo assay; format: functional, cell-based; details: HepG2, 48 h
# [2] = Intrinsic clearance in rat hepatocyte measured per 10^6 cells at 1 uM incubated upto 90 mins by LC-MS/MS analysis; format: ADME, cell-based; details: rat hepatocytes, read-out: CLH
# [3] = Kinetic aqueous solubility of the compound in PBS at pH 7.4 incubated for 2 hr under shaking condition by shake flask based UV reader plate analysis; format: physicochemical; details: read-out: Kinetic_solubility
# [4] = Intrinsic clearance in human liver microsomes at 1 uM incubated upto 60 mins in presence of NADPH by LC-MS/MS analysis; format: ADME, Microsome; details: read-out: CLH
# [5] = Lipophilicity, LogD of compound in 1-Octanol and PBS at pH 7.4 at 7.5 uM incubated for 2 hrs shake flask method based LC-MS/MS analysis; format: physicochemical; details: 1-octanol/PBS
# Plasmodium falciparum [6] = test: Antimalarial activity against MMV006833 resistant Plasmodium falciparum 3D7 assessed as reduction in parasite growth incubated for 72 hrs by LDH assay; format: functional, organism-based; details: 3D7, 72 h
# Plasmodium falciparum [7] = test: Antimalarial activity against MMV006833 resistant Plasmodium falciparum 3D7 harboring START1 N309K mutant assessed as reduction in parasite growth incubated for 72 hrs by LDH assay; format: functional, organism-based; details: 3D7, 72 h
# Plasmodium falciparum [8] = test: Antimalarial activity against MMV006833 resistant Plasmodium falciparum 3D7 harboring START1 N330K mutant assessed as reduction in parasite growth incubated for 72 hrs by LDH assay; format: functional, organism-based; details: 3D7, 72 h
# Plasmodium falciparum [9] = test: Binding affinity to recombinant Plasmodium falciparum START1 assessed as change in enthalpy at 10 uM by isothermal titration calorimetry
# Plasmodium falciparum [10] = test: Binding affinity to recombinant Plasmodium falciparum START1 assessed as change in entropy at 10 uM by isothermal titration calorimetry
# [11] = Binding affinity to recombinant Plasmodium falciparum START1 assessed as dissociation constant by isothermal titration calorimetry
# Plasmodium falciparum [12] = test: Antimalarial activity against DDD-107498 resistant Plasmodium falciparum Dd2 harboring eEF2 Y86N mutant assessed as reduction in parasite growth incubated for 72 hrs by [3H]-hypoxanthine incorporation assay; format: functional, organism-based
# Plasmodium falciparum [13] = test: Antimalarial activity against Plasmodium falciparum Dd2 assessed as reduction in parasite growth incubated for 72 hrs by [3H]-hypoxanthine incorporation assay; format: functional, organism-based
# Plasmodium falciparum [14] = test: Antimalarial activity against KAF-156 resistant Plasmodium falciparum Dd2 harboring CARL I1139K mutant assessed as reduction in parasite growth incubated for 72 hrs by [3H]-hypoxanthine incorporation assay; format: functional, organism-based
# Plasmodium falciparum [15] = test: Antimalarial activity against ELQ-300 resistant Plasmodium falciparum Dd2 harboring Cyt b I22L mutant assessed as reduction in parasite growth incubated for 72 hrs by [3H]-hypoxanthine incorporation assay; format: functional, organism-based
# Plasmodium falciparum [16] = test: Antimalarial activity against MMV-048 resistant Plasmodium falciparum Dd2 harboring PI4K S743T mutant assessed as reduction in parasite growth incubated for 72 hrs by [3H]-hypoxanthine incorporation assay; format: functional, organism-based
Structure (SMILES),EC50 (Plasmodium falciparum [1]) [nM],EC50 (HepG2) [nM],further results
O=C(CNc1ccc(Cl)c(S(=O)(=O)N2CCOCC2)c1)Nc1cccc(OC(F)(F)F)c1,5000,19800,–
C[C@H](Nc1ccc(Cl)c(S(=O)(=O)N2CCOCC2)c1)C(=O)Nc1cncc(Cl)c1,54,> 40000,"hepatocyte CLint at 1 µM [2]: 50 µL/min/1e6 cells; solubility kinetic at 2 h [3]: 77 µM; microsomal CLint at 1 µM [4]: > 462 µL/min/mg; logD at 2 h, 7.5 µM [5]: 3.1; EC50 (Plasmodium falciparum [6]): 16 nM; EC50 (Plasmodium falciparum [7]): 7800 nM; EC50 (Plasmodium falciparum [8]): 2600 nM; deltaH (Plasmodium falciparum [9]): -14.4 kcal/mol; -TdeltaS (Plasmodium falciparum [10]): 4.8 kcal/mol; Kd [11]: 119 nM"
C[C@@H](Nc1ccc(Cl)c(S(=O)(=O)N2CCOCC2)c1)C(=O)Nc1cncc(Cl)c1,1100,> 40000,–
CCC(C)[C@H](Nc1ccc(Cl)c(S(=O)(=O)N2CCOCC2)c1)C(=O)Nc1ccc(F)c(Cl)c1 (stereo partly specified),27,10900,EC50 (Plasmodium falciparum [6]): 15 nM; EC50 (Plasmodium falciparum [7]): 2100 nM; EC50 (Plasmodium falciparum [8]): 1600 nM
N#Cc1ccc(NCC(=O)Nc2ccc(F)c(Cl)c2)cc1S(=O)(=O)N1CCOCC1,750,> 40000,–
Cc1cc(Cl)c(S(=O)(=O)N2CCOCC2)cc1OCC(=O)NC1CCCCC1,1600,> 40000,–
O=C(CNc1ccc(Cl)c(S(=O)(=O)N2CCOCC2)c1)Nc1cc(Cl)ccn1,2800,> 40000,–
N#Cc1cccc(NC(=O)CNc2ccc(Cl)c(S(=O)(=O)N3CCOCC3)c2)c1,1500,> 40000,–
CC(C)[C@H](Nc1ccc(Cl)c(S(=O)(=O)N2CCOCC2)c1)C(=O)Nc1ccc(F)c(Cl)c1,33,30300,EC50 (Plasmodium falciparum [6]): 5 nM; EC50 (Plasmodium falciparum [7]): 2400 nM; EC50 (Plasmodium falciparum [8]): 2100 nM
O=C(NCCN1CCCC1)c1cc(-c2ccc(CN3CCOCC3)cc2)nc2ccc(F)cc12 [CABAMIQUINE],–,–,EC50 (Plasmodium falciparum [12]): 850 nM
CC1(C)c2nc(-c3ccc(F)cc3)c(Nc3ccc(F)cc3)n2CCN1C(=O)CN [GANAPLACIDE],–,–,EC50 (Plasmodium falciparum [13]): 8 nM; EC50 (Plasmodium falciparum [14]): 1530 nM
Cc1cc(Cl)c(S(=O)(=O)N2CCOCC2)cc1NCC(=O)NC1CCCCC1,1000,> 40000,–
CN(C)C1CCN(S(=O)(=O)c2cc(NCC(=O)Nc3ccc(F)c(Cl)c3)ccc2Cl)CC1,> 10000,> 40000,–
CCC(Nc1ccc(Cl)c(S(=O)(=O)N2CCOCC2)c1)C(=O)Nc1ccc(F)c(Cl)c1 (racemic),11,24500,–
C[C@@H](Nc1ccc(Cl)c(S(=O)(=O)N2CCOCC2)c1)C(=O)Nc1ccc(F)c(Cl)c1,320,> 40000,EC50 (Plasmodium falciparum [6]): 99 nM; EC50 (Plasmodium falciparum [7]): 4300 nM; EC50 (Plasmodium falciparum [8]): 4400 nM; deltaH (Plasmodium falciparum [9]): -16.1 kcal/mol; -TdeltaS (Plasmodium falciparum [10]): 6.7 kcal/mol; Kd [11]: 138 nM
CCC[C@H](Nc1ccc(Cl)c(S(=O)(=O)N2CCOCC2)c1)C(=O)Nc1ccc(F)c(Cl)c1,140,16300,–
O=C(CNc1ccc(Cl)c(S(=O)(=O)N2CCOCC2)c1)Nc1cncc(Cl)c1,410,> 40000,–
O=C(Nc1ccc(F)c(Cl)c1)[C@@H]1CCCCN1c1ccc(Cl)c(S(=O)(=O)N2CCOCC2)c1,420,21000,–
CC(=O)N1CCN(S(=O)(=O)c2cc(NCC(=O)Nc3ccc(F)c(Cl)c3)ccc2Cl)CC1,9100,> 40000,–
Cc1cc(Cl)c(S(=O)(=O)N2CCOCC2)cc1NCC(=O)Nc1ccc(F)c(Cl)c1,130,> 40000,–
COC1CCN(S(=O)(=O)c2cc(NCC(=O)Nc3ccc(F)c(Cl)c3)ccc2Cl)CC1,1500,> 40000,–
O=C(CNc1ccc(Cl)c(S(=O)(=O)N2CCC(Cc3ccccc3)CC2)c1)Nc1ccc(F)c(Cl)c1,270,14000,–

Structure (SMILES),EC50 (Plasmodium falciparum [1]) [nM],EC50 (HepG2) [nM],further results
CN1CCN(S(=O)(=O)c2cc(NCC(=O)Nc3ccc(F)c(Cl)c3)ccc2Cl)CC1,> 10000,> 40000,–
C[C@H](Nc1ccc(Cl)c(S(=O)(=O)N2CCOCC2)c1)C(=O)Nc1ccc(F)c(Cl)c1,22,> 40000,"hepatocyte CLint at 1 µM [2]: > 92 µL/min/1e6 cells; solubility kinetic at 2 h [3]: 14 µM; microsomal CLint at 1 µM [4]: > 462 µL/min/mg; logD at 2 h, 7.5 µM [5]: 3.9; EC50 (Plasmodium falciparum [6]): 3 nM; EC50 (Plasmodium falciparum [7]): 2100 nM; EC50 (Plasmodium falciparum [8]): 1700 nM; deltaH (Plasmodium falciparum [9]): -17.7 kcal/mol; -TdeltaS (Plasmodium falciparum [10]): 7.8 kcal/mol; Kd [11]: 66 nM"
O=C(COc1ccc(Cl)c(S(=O)(=O)N2CCOCC2)c1)NC1CCCCC1,4300,> 40000,–
COc1cc2[nH]c(C)c(-c3ccc(Oc4ccc(OC(F)(F)F)cc4)cc3)c(=O)c2cc1Cl,–,–,EC50 (Plasmodium falciparum [13]): 21 nM; EC50 (Plasmodium falciparum [15]): 180 nM
Cc1cc(Cl)c(S(=O)(=O)N2CCCC2)cc1OCC(=O)NC1CCCCC1,–,–,Kd [11]: 42 nM
Cc1ccc(NCC(=O)Nc2cccc(C(F)(F)F)c2)cc1S(=O)(=O)N1CCOCC1,3800,> 40000,–
Cc1ccc(NCC(=O)Nc2ccccc2)cc1S(=O)(=O)N1CCOCC1,2100,> 40000,–
CS(=O)(=O)c1ccc(-c2cnc(N)c(-c3ccc(C(F)(F)F)nc3)c2)cc1 [MMV-048],–,–,EC50 (Plasmodium falciparum [13]): 16 nM; EC50 (Plasmodium falciparum [16]): 120 nM
CN1CCC(NS(=O)(=O)c2cc(NCC(=O)Nc3ccc(F)c(Cl)c3)ccc2Cl)CC1,> 10000,> 40000,–
CC(C)CC(Nc1ccc(Cl)c(S(=O)(=O)N2CCOCC2)c1)C(=O)Nc1ccc(F)c(Cl)c1 (racemic),850,9500,–
Cc1ccc(NCC(=O)Nc2cccc(Cl)c2)cc1S(=O)(=O)N1CCOCC1,360,> 40000,–
O=C(COc1ccc(Cl)c(S(=O)(=O)N2CCOCC2)c1)Nc1ccc(F)c(Cl)c1,810,> 40000,–
CC1CCN(S(=O)(=O)c2cc(NCC(=O)Nc3ccc(F)c(Cl)c3)ccc2Cl)CC1,260,26800,–
Cc1ccc(NCC(=O)Nc2ccc(F)c(Cl)c2)cc1S(=O)(=O)N1CCOCC1,270,–,–
O=C(CNc1ccc(Cl)c(S(=O)(=O)N2CCOCC2)c1)Nc1cccc(Cl)c1,280,> 40000,–
O=C(CNc1ccc(Cl)c(S(=O)(=O)N2CCOCC2)c1)Nc1cccc(Cl)n1,8900,> 40000,–
Cc1cc(Cl)c(S(=O)(=O)N2CCOCC2)cc1OCC(=O)Nc1ccc(F)c(Cl)c1,300,> 40000,–
O=C(Nc1ccc(F)c(Cl)c1)C(Cc1ccccc1)Nc1ccc(Cl)c(S(=O)(=O)N2CCOCC2)c1 (racemic),1400,15500,–
O=C(Nc1ccc(F)c(Cl)c1)C(Nc1ccc(Cl)c(S(=O)(=O)N2CCOCC2)c1)c1ccccc1 (racemic),6300,19300,–
COc1ccc(NCC(=O)Nc2ccc(F)c(Cl)c2)cc1S(=O)(=O)N1CCOCC1,430,> 40000,–
O=C(CNc1ccc(F)c(S(=O)(=O)N2CCOCC2)c1)Nc1ccc(F)c(Cl)c1,400,–,–
O=C(CNc1ccc(Cl)c(S(=O)(=O)N2CCOCC2)c1)Nc1ccnc(Cl)c1,1100,> 40000,–
